Laboratory results taken from patent US20230278972A1, “SUBSTITUTED HALOALKYL SULFONANILIDE HERBICIDES” (FMC Corporation, priority 2020, published 2023).

Key:
Type in all cases: in vivo
[1] = test system: ragweed (common ragweed, Ambrosia artemisiifolia); assay: Test A1 preemergence, ragweed
Procedure, shortened: (§1)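 Pre: seeds in loam/sand blend, directed soil spray. Post: potted plants, same soil, 2–10 cm, 1–2 leaf stage. Chemicals in non-phytotoxic solvent + surfactant for both.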

[2] = test system: Ryegrass, Italian (Italian ryegrass, Lolium multiflorum); assay: Test A1 preemergence, Ryegrass, Italian
Procedure, shortened: as §1

[3] = test system: Foxtail, Giant (giant foxtail, Setaria faberi); assay: Test A1 preemergence, Foxtail, Giant
Procedure, shortened: as §1

soybean (Glycine max) = assay: Test A1 postemergence, soybean; details: for Soybean plant response rating: 31 g ai/ha, postemergence; for Plant response rating, Soybean: Postemergence
Procedure, shortened: (§2)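 Both timings started from seed in a loam-sand blend. Preemergence pots got a directed soil application immediately; postemergence pots were sprayed when seedlings had one or two leaves and stood 2–10 cm. Each compound was prepared in a non-phytotoxic solvent plus surfactant.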

[4] = test system: goosegrass (Eleusine indica); assay: Test A1 postemergence, goosegrass; details: for Goosegrass plant response rating: 31 g ai/ha, postemergence; for Plant response rating, Goosegrass: Postemergence
Procedure, shortened: as §2

[5] = 31 g ai/ha, 0 to 100 scale (0 no effect, 100 complete control)
[6] = 125 g ai/ha, 0 to 100 scale, 0 no effect, 100 complete control
[7] = 0 to 100 scale (0 no effect, 100 complete control)
[8] = 125 g ai/ha, 0 to 100 scale (0 no effect, 100 complete control), 10 days
[9] = 500 g ai/ha, 0 to 100 scale (0 no effect, 100 complete control)
[10] = 125 g ai/ha, 0 to 100 scale (0 no effect, 100 complete control)

Row | SMILES | Plant response rating, Ragweed [1, 5] | Plant response rating, Ragweed [1, 6] | Plant response rating, Ryegrass, Italian [2, 5] | Plant response rating, Ryegrass, Italian [2, 6] | Plant response rating, Foxtail, Giant [3, 5] | Plant response rating, Foxtail, Giant [3, 6] | Soybean plant response rating (soybean (Glycine max); [7]) | Plant response rating, Soybean (soybean (Glycine max); [8]) | Goosegrass plant response rating [4, 7] | Plant response rating, Goosegrass [4, 8] | Plant response rating, Ragweed [1, 9] | Plant response rating, Ryegrass, Italian [2, 9] | Plant response rating, Foxtail, Giant [3, 9] | Plant response rating, Soybean (soybean (Glycine max); 500 g ai/ha, 0 to 100 scale) | Plant response rating, Goosegrass ([4]; 500 g ai/ha, 0 to 100 scale) | Plant response rating, Ragweed [1, 10] | Plant response rating, Ryegrass, Italian [2, 10] | Plant response rating, Foxtail, Giant [3, 10]
1 | Cc1cc(Cl)c(NS(=O)(=O)C(F)(F)F)cc1N1CC2(CCCCC2)OC1=O [Compound 394] | 40 | 90 | 40 | 100 | 90 | 100 | 10 | 60 | 0 | 30 |  |  |  |  |  |  |  | 
2 | Cc1cc(C)c(N(COC(=O)C(C)(C)C)S(=O)(=O)C(F)(F)F)cc1N1CCC2(CCC(F)(F)CC2)C1=O [Compound 397] |  | 90 |  | 100 |  | 100 |  | 50 |  | 90 | 90 | 100 | 100 | 60 | 90 |  |  | 
3 | COC1CCC2(CC1)CCN(c1cc(NS(=O)(=O)C(F)(F)F)c(C)cc1C)C2=O (centres unmarked) [Compound 398] | 20 | 80 | 60 | 100 | 90 | 100 | 30 | 60 | 50 | 90 |  |  |  |  |  |  |  | 
4 | Cc1cc(C)c(N(S(=O)(=O)C(F)(F)F)S(=O)(=O)C(F)(F)F)cc1N1CCC2(CCC(C(F)(F)F)CC2)C1=O (centres unmarked) [Compound 399] | 0 | 60 | 40 | 90 | 10 | 90 | 60 | 100 | 40 | 90 |  |  |  |  |  |  |  | 
5 | Cc1cc(C)c(N2CCC3(CCC(C(F)(F)F)CC3)C2=O)cc1NS(=O)(=O)C(F)(F)F (centres unmarked) [Compound 400] | 70 | 90 | 60 | 90 | 20 | 90 | 50 | 60 | 10 | 80 |  |  |  |  |  |  |  | 
6 | Cc1cc(C)c(N2Cc3cccc(C)c3C2=O)cc1NS(=O)(=O)Cl [Compound 408] |  |  |  |  | 100 |  | 40 | 50 | 90 | 90 |  |  |  |  |  | 50 | 100 | 100
7 | COc1cccc2c1C(=O)N(c1cc(N(COC(=O)C(C)(C)C)S(=O)(=O)Cl)c(C)cc1C)C2 [Compound 413] |  |  |  |  | 0 |  | 80 | 80 | 0 | 0 |  |  |  |  |  | 90 | 20 | 10
8 | CCOc1cccc2c1C(=O)N(c1cc(N(COC(=O)C(C)(C)C)S(=O)(=O)Cl)c(C)cc1C)C2 [Compound 414] |  |  |  |  | 0 |  | 20 | 30 | 0 | 0 |  |  |  |  |  | 20 | 30 | 0
